This note sets out measurements from US20150202313A1, “Macromolecular Prodrugs for Hard Tissue and Methods of Use Thereof” (New York Society for The Ruptured and Crippled Maintaining …, priority 2012, published 2015).

Each structure is given as a SMILES string.

Data set [1] has as its system open fracture mouse model (femoral shaft fracture). Briefly: Therapeutic efficacy in open fracture mouse model, micro-CT analysis of callus. It is filed as in vivo, Swiss Webster mice. As to the method: Ten-week-old male Swiss Webster mice were purchased from Charles River Laboratories, and maintained under standard housing conditions. The animals were acclimated for at least 1 week before any experimental procedure. Under general anesthesia with isoflurane, the hips, thighs, and knees on the right side of the animal were prepared with Betadine (povidone-iodine) solution. A 1.0 cm right medial parapatellar incision was made on the right knee. The patella was dislocated laterally to expose the femoral condyles. A 25-guage needle was introduced into the canal and driven in a retrograde intramedullary fashion to the level of the greater trochanter. Distally, the needle was cut flush with the cortex (length was about 1.4 cm) so as not to interfere with motion of the knee. […] Postoperatively, mice were placed on clean paper towels in their cages (to avoid inhalation/aspiration of the bedding material) and monitored until the animals were fully awake. The mice were monitored for signs of pain with analgesia and antibiotics given according to established protocol. […]
For the quantitative analysis, we specifically focused on the site of fracture callus formation. […] The following parameters were measured and calculated: callus volume (Cl.V), callus thickness (Cl.Th), callus separation (Cl.Sp) and the ratio of callus surface to volume (Cl.S/Cl.V). […]

Data set [2] shares this test system. The experiment in a line: Therapeutic efficacy in open fracture mouse model, Safranin O histology of callus. It is filed as in vivo, Swiss Webster mice. Particulars: 21 days post fracture. As to the method: Ten-week-old male Swiss Webster mice were purchased from Charles River Laboratories, and maintained under standard housing conditions. The animals were acclimated for at least 1 week before any experimental procedure. Under general anesthesia with isoflurane, the hips, thighs, and knees on the right side of the animal were prepared with Betadine (povidone-iodine) solution. A 1.0 cm right medial parapatellar incision was made on the right knee. The patella was dislocated laterally to expose the femoral condyles. A 25-guage needle was introduced into the canal and driven in a retrograde intramedullary fashion to the level of the greater trochanter. Distally, the needle was cut flush with the cortex (length was about 1.4 cm) so as not to interfere with motion of the knee. Controlled unilateral transverse femoral shaft fractures were created with a #15 blade. […] Postoperatively, mice were placed on clean paper towels in their cages (to avoid inhalation/aspiration of the bedding material) and monitored until the animals were fully awake. The mice were monitored for signs of pain with analgesia and antibiotics given according to established protocol. […]
After micro-CT analysis, the fractured femurs were decalcified using 14% EDTA at room temperature for 30 days. […] The specimens were then paraffin embedded, sectioned (5 μm thickness), stained with Safranin 0 and histologically evaluated.

A short description of data set [3]: Weight loss side effect during treatment. Particulars: in vivo. The text has this: Eighteen 10-week-old male Swiss Webster mice were osteotomized and randomly assigned into three groups (6 mice/group). […] The overall SIM doses given to the SIMA and SIM/SIM-mPEG were equivalent. All mice were euthanized 21 days post osteotomy.

`CCC(C)(C)C(=O)O[C@H]1C[C@@H](C)C=C2C=C[C@H](C)[C@H](CC[C@@H](O)C[C@@H](O)CC(=O)O)[C@H]21` [SIMA, simvastatin acid]: the “quantitative morphometric indices of callus (micro-CT), comparison with CON” value in data set [1] (21 days post osteotomy, SIMA equiv. SIM 6 mg/kg/day i.p., micelles equiv. SIM 42 mg/kg/wk i.v.) is recorded as “No statistical significance”. Also, the “mineralization of the fracture callus (micro-CT images)” value in data set [1] (21 days post-fracture) is given as “less mineralized callus formation at the fracture site”. Further, the “histological features of callus sections (Safranin O)” value in data set [2] is “intermediate stage between CON and SIM/SIM-mPEG groups”. Further, the “side effect of weight loss” value in data set [3] is “weight loss observed”.
